Measurements from paper PMC4710522, “A Novel Triazolopyridine-Based Spleen Tyrosine Kinase Inhibitor That Arrests Joint Inflammation” (PLoS ONE, 2016).
pIC50: −log10 of the molar value. Several values for one entry are separate records, joined by “and”; a condition that tells them apart may be missing. Identical values can stand only once.

How the values were obtained:
Experiment in all cases: SelectScreen kinase assay
Assay type in all cases: biochemical
ALK_h = biological target: T1, ALK_h (Homo sapiens, UniProt Q9UM73); settings: KM ATP, read-out: % control
T1 construct: purchased Life Technologies (Invitrogen) SelectScreen, Z'-LYTE / Adapta
Procedure, shortened: (§1)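 Z'-Lyte or Adapta format; compound fixed at 3 µM; ATP at KM, 10 µM or 100 µM as indicated; read-out % control relative to uninhibited DMSO wells.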

CDK5_p25_h = biological target: T2, CDK5_p25_h (Homo sapiens, UniProt Q00535); settings: KM ATP, read-out: % control
T2 construct: purchased Life Technologies (Invitrogen) SelectScreen, Z'-LYTE / Adapta
Procedure, shortened: as §1

CDK5_p35_h = biological target: T3, CDK5_p35_h (Homo sapiens, UniProt Q00535); settings: KM ATP, read-out: % control
T3 construct: purchased Life Technologies (Invitrogen) SelectScreen, Z'-LYTE / Adapta
Procedure, shortened: as §1

CK1-alpha1_h = biological target: T4, CK1-alpha1_h (Homo sapiens, UniProt P48729); settings: KM ATP, read-out: % control
T4 construct: purchased Life Technologies (Invitrogen) SelectScreen, Z'-LYTE / Adapta
Procedure, shortened: as §1

CaMKI-delta_h = biological target: T5, CaMKI-delta_h (Homo sapiens, UniProt Q8IU85); settings: KM ATP, read-out: % control
T5 construct: purchased Life Technologies (Invitrogen) SelectScreen, Z'-LYTE / Adapta
Procedure, shortened: as §1

DYR1A_h = biological target: T6, DYR1A_h (Homo sapiens, UniProt Q13627); settings: KM ATP, read-out: % control
T6 construct: purchased Life Technologies (Invitrogen) SelectScreen, Z'-LYTE / Adapta
Procedure, shortened: as §1

EGFR_T790M_h = biological target: T7, EGFR_T790M_h (Homo sapiens, UniProt P00533, T790M); settings: KM ATP, read-out: % control
T7 construct: purchased Life Technologies (Invitrogen) SelectScreen, Z'-LYTE / Adapta
Procedure, shortened: as §1

EphB2_h = biological target: T8, EphB2_h (Homo sapiens, UniProt P29323); settings: KM ATP, read-out: % control
T8 construct: purchased Life Technologies (Invitrogen) SelectScreen, Z'-LYTE / Adapta
Procedure, shortened: as §1

EphB3_h = biological target: T9, EphB3_h (Homo sapiens, UniProt P54753); settings: KM ATP, read-out: % control
T9 construct: purchased Life Technologies (Invitrogen) SelectScreen, Z'-LYTE / Adapta
Procedure, shortened: as §1

GSK3-beta_h = biological target: T10, GSK3-beta_h (Homo sapiens, UniProt P49841); settings: KM ATP, read-out: % control
T10 construct: purchased Life Technologies (Invitrogen) SelectScreen, Z'-LYTE / Adapta
Procedure, shortened: as §1

Hgk_h = biological target: T11, Hgk_h (Homo sapiens, UniProt O95819); settings: KM ATP, read-out: % control
T11 construct: purchased Life Technologies (Invitrogen) SelectScreen, Z'-LYTE / Adapta
Procedure, shortened: as §1

IRR_h = biological target: T12, IRR_h (Homo sapiens, UniProt P14616); settings: KM ATP, read-out: % control
T12 construct: purchased Life Technologies (Invitrogen) SelectScreen, Z'-LYTE / Adapta
Procedure, shortened: as §1

JAK2-JH1-JH2_h = biological target: T13, JAK2-JH1-JH2_h (Homo sapiens, UniProt O60674); settings: KM ATP, read-out: % control
T13 construct: JAK2-JH1-JH2_h; purchased Life Technologies (Invitrogen) SelectScreen, Z'-LYTE / Adapta
Procedure, shortened: as §1

JNK2-alpha2_h = biological target: T14, JNK2-alpha2_h (Homo sapiens, UniProt P45984); settings: 100 µM ATP, read-out: % control
T14 construct: purchased Life Technologies (Invitrogen) SelectScreen, Z'-LYTE / Adapta
Procedure, shortened: as §1

JNK3_h = biological target: T15, JNK3_h (Homo sapiens, UniProt P53779); settings: 100 µM ATP, read-out: % control
T15 construct: purchased Life Technologies (Invitrogen) SelectScreen, Z'-LYTE / Adapta
Procedure, shortened: as §1

KDR_h = KDR_h (Homo sapiens, UniProt P35968)
Procedure, shortened: as §1

LYN-A_h = LYN-A_h (Homo sapiens, UniProt P07948)
Procedure, shortened: as §1

Lck_h = biological target: T16, Lck_h (Homo sapiens, UniProt P06239); settings: KM ATP, read-out: % control
T16 construct: purchased Life Technologies (Invitrogen) SelectScreen, Z'-LYTE / Adapta
Procedure, shortened: as §1

MAPK1_h = biological target: T17, MAPK1_h (Homo sapiens, UniProt P28482); settings: KM ATP, read-out: % control
T17 construct: purchased Life Technologies (Invitrogen) SelectScreen, Z'-LYTE / Adapta
Procedure, shortened: as §1

MKK6_h = biological target: T18, MKK6_h (Homo sapiens, UniProt P52564); settings: 100 µM ATP, read-out: % control
T18 construct: purchased Life Technologies (Invitrogen) SelectScreen, Z'-LYTE / Adapta
Procedure, shortened: as §1

NEK1_h = biological target: T19, NEK1_h (Homo sapiens, UniProt Q96PY6); settings: KM ATP, read-out: % control
T19 construct: purchased Life Technologies (Invitrogen) SelectScreen, Z'-LYTE / Adapta
Procedure, shortened: as §1

NEK4_h = biological target: T20, NEK4_h (Homo sapiens, UniProt P51957); settings: KM ATP, read-out: % control
T20 construct: purchased Life Technologies (Invitrogen) SelectScreen, Z'-LYTE / Adapta
Procedure, shortened: as §1

PAK6_h = biological target: T21, PAK6_h (Homo sapiens, UniProt Q9NQU5); settings: KM ATP, read-out: % control
T21 construct: purchased Life Technologies (Invitrogen) SelectScreen, Z'-LYTE / Adapta
Procedure, shortened: as §1

PKC-delta_h = biological target: T22, PKC-delta_h (Homo sapiens, UniProt Q05655); settings: KM ATP, read-out: % control
T22 construct: purchased Life Technologies (Invitrogen) SelectScreen, Z'-LYTE / Adapta
Procedure, shortened: as §1

PKC-epsilon_h = biological target: T23, PKC-epsilon_h (Homo sapiens, UniProt Q02156); settings: KM ATP, read-out: % control
T23 construct: purchased Life Technologies (Invitrogen) SelectScreen, Z'-LYTE / Adapta
Procedure, shortened: as §1

PKC-mu_h = biological target: T24, PKC-mu_h (Homo sapiens, UniProt Q15139); settings: KM ATP, read-out: % control
T24 construct: purchased Life Technologies (Invitrogen) SelectScreen, Z'-LYTE / Adapta
Procedure, shortened: as §1

Ret_Y791F_h = biological target: T25, Ret_Y791F_h (Homo sapiens, UniProt P07949, Y791F); settings: KM ATP, read-out: % control
T25 construct: purchased Life Technologies (Invitrogen) SelectScreen, Z'-LYTE / Adapta
Procedure, shortened: as §1

STK25_h = biological target: T26, STK25_h (Homo sapiens, UniProt O00506); settings: KM ATP, read-out: % control
T26 construct: purchased Life Technologies (Invitrogen) SelectScreen, Z'-LYTE / Adapta
Procedure, shortened: as §1

TAO1_h = biological target: T27, TAO1_h (Homo sapiens, UniProt Q9UL54); settings: KM ATP, read-out: % control
T27 construct: purchased Life Technologies (Invitrogen) SelectScreen, Z'-LYTE / Adapta
Procedure, shortened: as §1

TSSK1_h = biological target: T28, TSSK1_h (Homo sapiens, UniProt Q9BXA7); settings: KM ATP, read-out: % control
T28 construct: purchased Life Technologies (Invitrogen) SelectScreen, Z'-LYTE / Adapta
Procedure, shortened: as §1

Tyk2_h = Tyk2_h (Homo sapiens, UniProt P29597)
Procedure, shortened: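 Kinase activity measured by Z'-Lyte or Adapta protocols. Single-point testing used 3 µM compound with ATP at the enzyme's KM, or at 10 or 100 µM as indicated. Values given as % control versus DMSO-only wells (100%).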

p38-alpha_h = biological target: T29, p38-alpha_h (Homo sapiens, UniProt Q16539); settings: 100 µM ATP, read-out: % control
T29 construct: purchased Life Technologies (Invitrogen) SelectScreen, Z'-LYTE / Adapta
Procedure, shortened: as §1

p38-delta_h = biological target: T30, p38-delta_h (Homo sapiens, UniProt O15264); settings: KM ATP, read-out: % control
T30 construct: purchased Life Technologies (Invitrogen) SelectScreen, Z'-LYTE / Adapta
Procedure, shortened: as §1

[1] = 3 µM, KM ATP, read-out: % control
[2] = 10-point dose-response, commercial vendor

Chain of Tyk2_h (P29597 whole entry): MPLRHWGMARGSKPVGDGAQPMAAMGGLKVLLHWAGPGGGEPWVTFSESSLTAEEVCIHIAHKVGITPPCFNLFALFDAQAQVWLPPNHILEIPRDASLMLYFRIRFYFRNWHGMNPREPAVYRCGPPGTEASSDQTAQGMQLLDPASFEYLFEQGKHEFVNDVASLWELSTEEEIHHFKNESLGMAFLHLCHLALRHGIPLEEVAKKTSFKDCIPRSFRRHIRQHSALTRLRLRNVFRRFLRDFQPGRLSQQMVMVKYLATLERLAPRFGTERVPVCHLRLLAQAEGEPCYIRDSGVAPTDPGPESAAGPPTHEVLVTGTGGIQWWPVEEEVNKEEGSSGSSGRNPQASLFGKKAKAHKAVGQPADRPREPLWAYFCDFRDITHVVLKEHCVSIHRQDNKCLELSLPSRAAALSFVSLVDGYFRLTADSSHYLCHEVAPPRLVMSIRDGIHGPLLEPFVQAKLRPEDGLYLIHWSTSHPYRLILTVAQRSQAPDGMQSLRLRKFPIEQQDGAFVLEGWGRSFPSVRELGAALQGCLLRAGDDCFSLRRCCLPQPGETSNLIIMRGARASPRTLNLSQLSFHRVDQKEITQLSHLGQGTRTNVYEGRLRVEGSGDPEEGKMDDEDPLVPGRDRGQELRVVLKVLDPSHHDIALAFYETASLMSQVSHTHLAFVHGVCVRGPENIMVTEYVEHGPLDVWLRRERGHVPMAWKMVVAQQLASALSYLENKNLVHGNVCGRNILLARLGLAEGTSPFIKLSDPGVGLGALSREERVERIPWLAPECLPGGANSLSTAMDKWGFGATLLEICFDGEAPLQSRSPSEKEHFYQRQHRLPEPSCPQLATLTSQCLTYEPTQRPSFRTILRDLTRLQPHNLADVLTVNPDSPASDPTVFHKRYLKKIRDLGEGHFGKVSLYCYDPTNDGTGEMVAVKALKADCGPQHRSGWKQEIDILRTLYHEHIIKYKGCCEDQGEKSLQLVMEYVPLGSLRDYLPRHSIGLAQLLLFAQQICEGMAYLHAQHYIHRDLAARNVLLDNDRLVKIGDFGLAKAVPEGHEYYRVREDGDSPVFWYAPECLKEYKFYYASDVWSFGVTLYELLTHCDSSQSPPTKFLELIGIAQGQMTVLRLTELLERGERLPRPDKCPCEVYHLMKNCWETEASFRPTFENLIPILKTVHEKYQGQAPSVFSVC
Chain of KDR_h (P35968 20-1356): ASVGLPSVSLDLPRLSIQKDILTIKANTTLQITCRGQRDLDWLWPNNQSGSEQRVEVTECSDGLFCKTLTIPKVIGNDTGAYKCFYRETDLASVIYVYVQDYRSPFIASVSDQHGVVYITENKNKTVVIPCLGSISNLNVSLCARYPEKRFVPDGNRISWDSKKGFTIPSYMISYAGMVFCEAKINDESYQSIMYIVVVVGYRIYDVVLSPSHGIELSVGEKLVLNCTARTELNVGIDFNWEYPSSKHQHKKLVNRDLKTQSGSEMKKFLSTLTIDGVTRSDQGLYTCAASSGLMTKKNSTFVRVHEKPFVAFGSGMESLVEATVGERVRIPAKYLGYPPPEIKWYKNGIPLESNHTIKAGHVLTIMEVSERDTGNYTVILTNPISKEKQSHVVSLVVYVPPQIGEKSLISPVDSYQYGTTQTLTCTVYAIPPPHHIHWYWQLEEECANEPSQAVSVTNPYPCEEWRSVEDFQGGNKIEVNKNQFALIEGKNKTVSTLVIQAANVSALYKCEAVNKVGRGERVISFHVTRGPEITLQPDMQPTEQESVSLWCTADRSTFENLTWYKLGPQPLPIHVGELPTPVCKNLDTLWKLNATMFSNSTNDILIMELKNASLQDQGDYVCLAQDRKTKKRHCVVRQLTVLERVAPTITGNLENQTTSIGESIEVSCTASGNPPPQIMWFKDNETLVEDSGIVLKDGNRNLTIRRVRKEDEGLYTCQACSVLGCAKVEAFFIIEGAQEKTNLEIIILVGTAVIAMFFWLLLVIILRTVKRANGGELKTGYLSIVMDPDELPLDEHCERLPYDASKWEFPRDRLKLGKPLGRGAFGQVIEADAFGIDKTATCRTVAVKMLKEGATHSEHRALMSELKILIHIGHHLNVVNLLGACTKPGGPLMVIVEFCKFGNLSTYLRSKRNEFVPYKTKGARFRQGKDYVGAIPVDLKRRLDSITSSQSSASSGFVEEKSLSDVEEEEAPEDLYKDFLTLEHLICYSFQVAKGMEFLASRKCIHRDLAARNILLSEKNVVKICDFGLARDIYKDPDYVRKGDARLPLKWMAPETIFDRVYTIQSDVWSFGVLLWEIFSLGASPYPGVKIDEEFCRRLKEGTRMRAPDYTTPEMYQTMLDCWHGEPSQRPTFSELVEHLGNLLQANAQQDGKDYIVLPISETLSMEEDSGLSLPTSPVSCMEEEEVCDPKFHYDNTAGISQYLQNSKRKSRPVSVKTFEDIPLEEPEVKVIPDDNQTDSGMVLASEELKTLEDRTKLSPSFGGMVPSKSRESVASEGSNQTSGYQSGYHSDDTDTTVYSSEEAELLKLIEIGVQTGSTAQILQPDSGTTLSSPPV
Chain of LYN-A_h (P07948 whole entry): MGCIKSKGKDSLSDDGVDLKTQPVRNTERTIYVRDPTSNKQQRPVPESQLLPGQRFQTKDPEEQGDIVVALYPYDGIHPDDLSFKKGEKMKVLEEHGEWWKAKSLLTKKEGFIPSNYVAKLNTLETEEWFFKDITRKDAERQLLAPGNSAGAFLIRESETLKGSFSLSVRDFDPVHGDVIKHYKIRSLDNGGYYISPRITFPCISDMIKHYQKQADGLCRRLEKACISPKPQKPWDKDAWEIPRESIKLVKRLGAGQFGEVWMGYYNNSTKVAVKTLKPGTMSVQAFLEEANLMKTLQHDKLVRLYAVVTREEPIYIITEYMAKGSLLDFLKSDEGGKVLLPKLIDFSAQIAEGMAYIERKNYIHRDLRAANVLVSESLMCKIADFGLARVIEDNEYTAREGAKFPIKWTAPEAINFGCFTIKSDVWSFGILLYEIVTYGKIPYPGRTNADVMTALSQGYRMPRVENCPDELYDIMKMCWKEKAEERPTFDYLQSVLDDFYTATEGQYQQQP
T8 sequence (P29323 19-1055): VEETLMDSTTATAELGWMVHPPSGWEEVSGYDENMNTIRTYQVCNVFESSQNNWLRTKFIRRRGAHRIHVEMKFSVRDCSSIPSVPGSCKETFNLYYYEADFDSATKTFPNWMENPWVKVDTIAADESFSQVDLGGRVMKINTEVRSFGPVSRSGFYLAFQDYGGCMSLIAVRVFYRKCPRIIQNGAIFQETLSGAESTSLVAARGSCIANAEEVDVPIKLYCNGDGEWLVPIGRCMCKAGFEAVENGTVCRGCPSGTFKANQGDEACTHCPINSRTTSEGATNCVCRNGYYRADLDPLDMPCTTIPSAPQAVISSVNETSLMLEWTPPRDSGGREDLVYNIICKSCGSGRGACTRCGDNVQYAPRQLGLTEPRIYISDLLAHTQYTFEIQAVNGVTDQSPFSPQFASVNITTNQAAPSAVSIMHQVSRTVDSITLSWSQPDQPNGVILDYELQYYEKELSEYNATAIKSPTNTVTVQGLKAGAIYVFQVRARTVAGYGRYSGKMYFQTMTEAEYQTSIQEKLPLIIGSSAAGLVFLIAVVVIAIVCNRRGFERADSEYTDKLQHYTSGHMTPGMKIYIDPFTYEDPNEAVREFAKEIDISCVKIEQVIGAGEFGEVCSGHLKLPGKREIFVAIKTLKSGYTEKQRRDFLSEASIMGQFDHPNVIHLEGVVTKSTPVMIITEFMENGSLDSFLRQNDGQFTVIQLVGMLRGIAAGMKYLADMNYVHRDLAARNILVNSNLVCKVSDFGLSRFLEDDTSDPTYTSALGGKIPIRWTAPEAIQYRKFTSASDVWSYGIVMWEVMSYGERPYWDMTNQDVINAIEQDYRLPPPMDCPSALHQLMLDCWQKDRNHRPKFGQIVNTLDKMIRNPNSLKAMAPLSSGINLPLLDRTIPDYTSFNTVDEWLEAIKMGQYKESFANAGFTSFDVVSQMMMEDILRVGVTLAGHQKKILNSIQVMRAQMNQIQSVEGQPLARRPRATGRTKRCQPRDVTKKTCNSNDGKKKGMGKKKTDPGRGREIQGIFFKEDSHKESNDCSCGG
T10 sequence (P49841 whole entry): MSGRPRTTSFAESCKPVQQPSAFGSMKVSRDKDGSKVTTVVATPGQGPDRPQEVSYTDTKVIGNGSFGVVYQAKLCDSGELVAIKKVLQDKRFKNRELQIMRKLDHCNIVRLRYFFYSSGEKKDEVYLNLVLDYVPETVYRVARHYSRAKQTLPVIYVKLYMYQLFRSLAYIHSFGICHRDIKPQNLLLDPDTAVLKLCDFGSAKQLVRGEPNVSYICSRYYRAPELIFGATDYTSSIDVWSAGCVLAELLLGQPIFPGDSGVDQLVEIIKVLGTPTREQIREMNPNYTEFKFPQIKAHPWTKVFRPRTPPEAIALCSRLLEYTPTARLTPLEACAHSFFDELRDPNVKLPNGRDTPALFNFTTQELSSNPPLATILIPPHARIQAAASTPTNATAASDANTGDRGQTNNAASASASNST
T28 sequence (Q9BXA7 whole entry): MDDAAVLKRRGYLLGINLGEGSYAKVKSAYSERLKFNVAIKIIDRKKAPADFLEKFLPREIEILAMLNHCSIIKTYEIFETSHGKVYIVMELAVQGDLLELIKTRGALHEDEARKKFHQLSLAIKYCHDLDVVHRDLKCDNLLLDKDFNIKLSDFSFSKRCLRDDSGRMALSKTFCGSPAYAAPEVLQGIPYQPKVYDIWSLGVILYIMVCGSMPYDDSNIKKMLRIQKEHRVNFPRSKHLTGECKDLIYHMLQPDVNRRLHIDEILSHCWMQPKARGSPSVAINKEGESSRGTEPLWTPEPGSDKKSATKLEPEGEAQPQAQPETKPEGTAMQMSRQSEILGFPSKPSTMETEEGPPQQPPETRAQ

Molecule c1cc(CC2CCOCC2)n2nc(Nc3ccc4c(NC5CCOCC5)n[nH]c4c3)nc2c1 [CC-509, [3-(2H-3,4,5,6-tetrahydropyran-4-ylamino)(1H-indazol-6-yl)][5-(2H-3,4,5,6-tetrahydropyran-4-ylmethyl)(2H-1,2,4-triazolo[1,5-a]pyridin-2-yl)]amine] has a remaining activity at 3 µM (ALK_h) of 45%, a remaining activity at 3 µM (CDK5_p25_h) of 82% and a remaining activity at 3 µM (CDK5_p35_h) of 77%. It also gave a remaining activity at 3 µM (CK1-alpha1_h) of 88%, a remaining activity at 3 µM (CaMKI-delta_h) of 86% and a remaining activity at 3 µM (DYR1A_h) of 99%. For the same molecule, the remaining activity at 3 µM (EGFR_T790M_h) was 54%, the remaining activity at 3 µM (EphB2_h) was 75% and the remaining activity at 3 µM (EphB3_h) was 42%. The remaining activity at 3 µM (GSK3-beta_h) was 88%, the remaining activity at 3 µM (Hgk_h) was 62% and the remaining activity at 3 µM (IRR_h) was 99%. It also gave a remaining activity at 3 µM (JAK2-JH1-JH2_h) of 4%, a remaining activity at 3 µM (JNK2-alpha2_h) of 88% and a remaining activity at 3 µM (JNK3_h) of 94%. For the same molecule, the remaining activity at 3 µM (KDR_h; [1]) was 3%, the pIC50 (KDR_h; [2]) was 6.73 and the remaining activity at 3 µM (LYN-A_h; [1]) was 54%. The pIC50 (LYN-A_h; [2]) was 5.45, the remaining activity at 3 µM (Lck_h) was 39% and the remaining activity at 3 µM (MAPK1_h) was 94%. It also gave a remaining activity at 3 µM (MKK6_h) of 101%, a remaining activity at 3 µM (NEK1_h) of 73% and a remaining activity at 3 µM (NEK4_h) of 78%. It also gave a remaining activity at 3 µM (PAK6_h) of 91%, a remaining activity at 3 µM (PKC-delta_h) of 91% and a remaining activity at 3 µM (PKC-epsilon_h) of 100%. It also gave a remaining activity at 3 µM (PKC-mu_h) of 34%, a remaining activity at 3 µM (Ret_Y791F_h) of 18% and a remaining activity at 3 µM (STK25_h) of 97%. It also gave a remaining activity at 3 µM (TAO1_h) of 96%, a remaining activity at 3 µM (TSSK1_h) of 62% and a remaining activity at 3 µM (Tyk2_h; [1]) of 3%. The pIC50 (Tyk2_h; [2]) was 6.96 and 6.95, the remaining activity at 3 µM (p38-alpha_h) was 89% and the remaining activity at 3 µM (p38-delta_h) was 82%.
